{
  "source": "PubChem BioAssay AID2060602",
  "about": "(Molecular Pharmacology Branch, DTP, NCI, 2025)",
  "test_system": "648629-189-R-J1-PDC complex spheroids viability",
  "test": "Anticancer human tumor 648629-189-R-J1-PDC patient-derived bladder carcinoma cell line growth inhibition [CLK]",
  "conditions": "for pIC50: curve of first compound; for viability, T/C: stronger effect = lower value",
  "summary_of_the_method": "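Patient-derived tumor cells grown as complex spheroids with HUVEC endothelial cells and mesenchymal stem cells, treated with drug combinations. Concentrations descend in half-log steps from near clinical Cmax, or from 10 microM if Cmax unknown.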",
  "note": "pIC50: −log10 of the molar value.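 Throughout, for viability, T/C: drug exposure lasted seven days before viability readout; 100% = DMSO vehicle control wells.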",
  "data": [
    {"smiles": "CC1COCCN1c1cc(C2(S(C)(=N)=O)CC2)nc(-c2ccnc3[nH]ccc23)n1", "note": "(configuration not stated) + CNC(=O)c1ccc(Nc2nc(OC3CCCC3)c3c(-c4ccc5nc(C)oc5c4)c[nH]c3n2)c(OC)c1", "values": [
      {"measurement": "pIC50", "setting": "second compound 0.0316 µM", "result": 5.62},
      {"measurement": "pIC50", "setting": "second compound 0.1 µM", "result": 5.46},
      {"measurement": "pIC50", "setting": "second compound 0.316 µM", "result": "> 7.50"},
      {"measurement": "pIC50", "setting": "second compound 1 µM", "result": "> 7.50"},
      {"measurement": "pIC50", "setting": "second compound 3.16 µM", "result": "> 7.50"},
      {"measurement": "pIC50", "setting": "second compound 10 µM", "result": "> 7.50"},
      {"measurement": "viability, T/C", "setting": "second compound 0.0316 µM, first compound 0.0316 µM", "result": 112, "unit": "%"},
      {"measurement": "viability, T/C", "setting": "second compound 0.0316 µM, first compound 0.1 µM", "result": 115, "unit": "%"},
      {"measurement": "viability, T/C", "setting": "second compound 0.0316 µM, first compound 0.316 µM", "result": 98.5, "unit": "%"},
      {"measurement": "viability, T/C", "setting": "second compound 0.0316 µM, first compound 1 µM", "result": 83.4, "unit": "%"},
      {"measurement": "viability, T/C", "setting": "second compound 0.0316 µM, first compound 3.16 µM", "result": 38.6, "unit": "%"},
      {"measurement": "viability, T/C", "setting": "second compound 0.0316 µM, first compound 10 µM", "result": 19.3, "unit": "%"},
      {"measurement": "viability, T/C", "setting": "second compound 0.1 µM, first compound 0.0316 µM", "result": 90.2, "unit": "%"},
      {"measurement": "viability, T/C", "setting": "second compound 0.1 µM, first compound 0.1 µM", "result": 96.3, "unit": "%"},
      {"measurement": "viability, T/C", "setting": "second compound 0.1 µM, first compound 0.316 µM", "result": 92.1, "unit": "%"},
      {"measurement": "viability, T/C", "setting": "second compound 0.1 µM, first compound 1 µM", "result": 74.2, "unit": "%"},
      {"measurement": "viability, T/C", "setting": "second compound 0.1 µM, first compound 3.16 µM", "result": 53.5, "unit": "%"},
      {"measurement": "viability, T/C", "setting": "second compound 0.1 µM, first compound 10 µM", "result": 21.3, "unit": "%"},
      {"measurement": "viability, T/C", "setting": "second compound 0.316 µM, first compound 0.0316 µM", "result": 28.9, "unit": "%"},
      {"measurement": "viability, T/C", "setting": "second compound 0.316 µM, first compound 0.1 µM", "result": 34.6, "unit": "%"},
      {"measurement": "viability, T/C", "setting": "second compound 0.316 µM, first compound 0.316 µM", "result": 34.6, "unit": "%"},
      {"measurement": "viability, T/C", "setting": "second compound 0.316 µM, first compound 1 µM", "result": 32.4, "unit": "%"},
      {"measurement": "viability, T/C", "setting": "second compound 0.316 µM, first compound 3.16 µM", "result": 22.4, "unit": "%"},
      {"measurement": "viability, T/C", "setting": "second compound 0.316 µM, first compound 10 µM", "result": 15.3, "unit": "%"},
      {"measurement": "viability, T/C", "setting": "second compound 1 µM, first compound 0.0316 µM", "result": 20.5, "unit": "%"},
      {"measurement": "viability, T/C", "setting": "second compound 1 µM, first compound 0.1 µM", "result": 25.6, "unit": "%"},
      {"measurement": "viability, T/C", "setting": "second compound 1 µM, first compound 0.316 µM", "result": 19.7, "unit": "%"},
      {"measurement": "viability, T/C", "setting": "second compound 1 µM, first compound 1 µM", "result": 19.2, "unit": "%"},
      {"measurement": "viability, T/C", "setting": "second compound 1 µM, first compound 3.16 µM", "result": 18.9, "unit": "%"},
      {"measurement": "viability, T/C", "setting": "second compound 1 µM, first compound 10 µM", "result": 16, "unit": "%"},
      {"measurement": "viability, T/C", "setting": "second compound 3.16 µM, first compound 0.0316 µM", "result": 16.4, "unit": "%"},
      {"measurement": "viability, T/C", "setting": "second compound 3.16 µM, first compound 0.1 µM", "result": 21.8, "unit": "%"},
      {"measurement": "viability, T/C", "setting": "second compound 3.16 µM, first compound 0.316 µM", "result": 22.3, "unit": "%"},
      {"measurement": "viability, T/C", "setting": "second compound 3.16 µM, first compound 1 µM", "result": 23.1, "unit": "%"},
      {"measurement": "viability, T/C", "setting": "second compound 3.16 µM, first compound 3.16 µM", "result": 21.7, "unit": "%"},
      {"measurement": "viability, T/C", "setting": "second compound 3.16 µM, first compound 10 µM", "result": 13.9, "unit": "%"},
      {"measurement": "viability, T/C", "setting": "second compound 10 µM, first compound 0.0316 µM", "result": 18.6, "unit": "%"},
      {"measurement": "viability, T/C", "setting": "second compound 10 µM, first compound 0.1 µM", "result": 19.7, "unit": "%"},
      {"measurement": "viability, T/C", "setting": "second compound 10 µM, first compound 0.316 µM", "result": 20.8, "unit": "%"},
      {"measurement": "viability, T/C", "setting": "second compound 10 µM, first compound 1 µM", "result": 20.1, "unit": "%"},
      {"measurement": "viability, T/C", "setting": "second compound 10 µM, first compound 3.16 µM", "result": 21.9, "unit": "%"},
      {"measurement": "viability, T/C", "setting": "second compound 10 µM, first compound 10 µM", "result": 12.4, "unit": "%"}
    ]}
  ]
}
